Data reported in patent US20250381254A1, “Augmented Acid Alpha-Glucosidase For The Treatment Of Pompe Disease” (Amicus Therapeutics, Inc., priority 2015, published 2025).
Where two headings read alike, the source gives them in different places.

Tests used:
[1] = Miglustat toxicokinetics; type: in vivo, cynomolgus monkey; settings: for AUC(0-t) / Cmax / half-life / Tmax / Vd/F: cynomolgus monkey, plasma; for Vd/F: read-out: Vz/F
Description: Analysis of miglustat concentration was carried out using a LC-MS/MS method analogous to that described for analysis of duvoglustat concentration by Richie Khanna, Allan C. Powe Jr., Yi Lun, Rebecca Soska, Jessie Feng, Rohini Dhulipala, Michelle Frascella, Anadina Garcia, Lee J. Pellegrino, Su Xu, Nastry Brignol, Matthew J. Toth, Hung V. Do, David J. Lockhart, Brandon A. Wustman, Kenneth J. Valenzano. […] Miglustat TK parameters were estimated by the log-linear trapezoidal rule.

[2] = molecular target: ATB200 (Homo sapiens, UniProt P10253, H199R/R223H/V780I); assay: Unfolding of ATB200 protein vs. temperature with and without miglustat (FIG. 1); type: physicochemical; settings: various pH
Text: Without being bound by theory, it is believed that miglustat acts as a pharmacological chaperone for the recombinant human acid α-glucosidase ATB200 and binds to its active site. […] However, the binding of miglustat to the active site of ATB200 also can result in inhibition of the enzymatic activity of ATB200 by preventing the natural substrate, glycogen, from accessing the active site.

[3] = Cambodian origin, po, 175 mg/kg, Day 85, 100 mg/kg ATB200 + 175 mg/kg miglustat
[4] = Cambodian origin, po, 175 mg/kg, Day 85, 175 mg/kg miglustat monotherapy
[5] = po, 25 mg/kg, Day 1, 50 mg/kg ATB200 + 25 mg/kg miglustat
[6] = po, 25 mg/kg, Day 85, 50 mg/kg ATB200 + 25 mg/kg miglustat
[7] = po, 175 mg/kg, Day 1, 100 mg/kg ATB200 + 175 mg/kg miglustat
[8] = po, 175 mg/kg, Day 1, 175 mg/kg miglustat monotherapy
[9] = po, 175 mg/kg, Day 85, 100 mg/kg ATB200 + 175 mg/kg miglustat
[10] = po, 175 mg/kg, Day 85, 175 mg/kg miglustat monotherapy

**Q.** What does the source list for CCCCN1C[C@H](O)[C@@H](O)[C@H](O)[C@H]1CO [miglustat, (2R,3R,4R,5S)-1-butyl-2-(hydroxymethyl)piperidine-3,4,5-triol]?
**A.** AUC(0-t) [1, 3]: 216 µg·h/mL; Cmax [1, 3]: 22000 ng/mL; AUC(0-t) [1, 4]: 204 µg·h/mL; Cmax [1, 4]: 14700 ng/mL; CLT/F ([1]; Day 1, 50 mg/kg ATB200 + 25 mg/kg miglustat): 1.92 L/h; CLT/F ([1]; Day 1, 100 mg/kg ATB200 + 175 mg/kg miglustat): 3.22 L/h; CLT/F ([1]; Day 1, 175 mg/kg miglustat monotherapy): 3.67 L/h; CLT/F ([1]; Day 85, 50 mg/kg ATB200 + 25 mg/kg miglustat): 1.99 L/h; CLT/F ([1]; Day 85, 100 mg/kg ATB200 + 175 mg/kg miglustat): 3.62 L/h; CLT/F ([1]; Day 85, 175 mg/kg miglustat monotherapy): 3.49 L/h; half-life ([1]; both sexes, oral, males and females combined, Days 1 and 85, across groups, read-out: mean t1/2): 6.66 to 8.23 h; Tmax ([1]; oral, postdose, across groups and days): 2 to 4 h; AUC(0-t) [1, 5]: 47.3 µg·h/mL; Cmax [1, 5]: 7430 ng/mL; Tmax [1, 5]: 2.06 h; Vd/F [1, 5]: 20.5 L; half-life ([1]; po, 25 mg/kg, Day 1, 50 mg/kg ATB200 + 25 mg/kg miglustat, read-out: t1/2 (converted)): 7.44 h; AUC(0-t) [1, 6]: 49.1 µg·h/mL; Cmax [1, 6]: 7510 ng/mL; Tmax [1, 6]: 2.88 h; Vd/F [1, 6]: 23.3 L; half-life ([1]; po, 25 mg/kg, Day 85, 50 mg/kg ATB200 + 25 mg/kg miglustat, read-out: t1/2 (converted)): 8.23 h; AUC(0-t) [1, 7]: 182 µg·h/mL; Cmax [1, 7]: 20400 ng/mL; Tmax [1, 7]: 2.69 h; Vd/F [1, 7]: 32.3 L; half-life ([1]; po, 175 mg/kg, Day 1, 100 mg/kg ATB200 + 175 mg/kg miglustat, read-out: t1/2 (converted)): 6.85 h; AUC(0-t) [1, 8]: 173 µg·h/mL; Cmax [1, 8]: 16400 ng/mL; Vd/F [1, 8]: 35.9 L; half-life ([1]; po, 175 mg/kg, Day 1, 175 mg/kg miglustat monotherapy, read-out: t1/2 (converted)): 6.86 h; Tmax [1, 9]: 3.56 h; Vd/F [1, 9]: 39.1 L; half-life ([1]; po, 175 mg/kg, Day 85, 100 mg/kg ATB200 + 175 mg/kg miglustat, read-out: t1/2 (converted)): 7.86 h; Tmax [1, 10]: 4.13 h; Vd/F [1, 10]: 33.8 L; half-life ([1]; po, 175 mg/kg, Day 85, 175 mg/kg miglustat monotherapy, read-out: t1/2 (converted)): 6.66 h; percentage of unfolded ATB200 protein [2]: decrease the percentage of unfolded ATB200 protein
